Results from patent US7939510B2, “Di(uridine 5′-)tetraphosphate and salts thereof” (priority 1997, dated 2011).
Read-outs that look alike come from different tables or passages of the source.

What was measured:
[1] = Nonclinical toxicologic profile (overall conclusion from the toxicity studies)
Text: (§1) A study in rabbits examined local ocular tolerance and subchronic ocular toxicity after multiple daily administrations over a six-week period.
(§2) A study in rabbits examines local ocular tolerance and subchronic ocular toxicity after multiple daily administrations over a six-week period.

rabbits = assay: Local ocular tolerance and subchronic ocular toxicity study in rabbits; type: in vivo; details: multiple daily administrations over six weeks
Text: as §1, §2

[2] = type: physicochemical
Protocol: The maximum solubility in water was thus determined to be ca. 900 mg/mL. […] The tetrasodium salt of P^1,P^4-di(uridine 5′-) tetraphosphate was thus determined to have an excellent solubility and stability profile suitable for pharmaceutical applications. […]

dogs = assay: Single-dose acute intravenous toxicity study in dogs; type: in vivo
[3] = tested on: normal healthy male volunteers; type: in vivo, human
Protocol: Forty non-smokers and 35 smokers were evaluated in 5 dosing cohorts of 16 volunteers, comprised of 12 receiving a single aerosolized dose of P^1,P^4-di(uridine 5′-) tetraphosphate, tetrasodium salt (20-400 mg) and 4 receiving placebo (normal saline).

rat = assay: Single-dose acute inhalation toxicity study in rat; type: in vivo; details: rats
dog = assay: Single-dose acute inhalation toxicity study in dog; type: in vivo; details: dogs

Substance: P^1,P^4-di(uridine 5′-)tetraphosphate, disodiumdipotassium salt
- toxicology profile ([1]; present-tense example): excellent toxicology profile with a wide safety margin
- adverse findings in ocular toxicology studies (rabbits; present-tense example): No adverse findings
- stability profile [2]: excellent

Substance: P^1,P^4-di(uridine 5′-)tetraphosphate, monolithiummonopotassiumdisodium salt
- stability profile [2]: excellent

Substance: P^1,P^4-di(uridine 5′-)tetraphosphate, monopotassiumtrilithium salt
- toxicology profile ([1]; present-tense example): excellent toxicology profile with a wide safety margin
- adverse findings in ocular toxicology studies (rabbits; present-tense example): No adverse findings
- stability profile [2]: excellent

Substance: P^1,P^4-di(uridine 5′-)tetraphosphate, tetralithium salt
- toxicology profile ([1]; present-tense example): excellent toxicology profile with a wide safety margin
- adverse findings in ocular toxicology studies (rabbits; present-tense example): No adverse findings
- stability profile [2]: excellent

Substance: P^1,P^4-di(uridine 5′-)tetraphosphate, tetrapotassium salt
- toxicology profile ([1]; present-tense example): excellent toxicology profile with a wide safety margin
- adverse findings in ocular toxicology studies (rabbits; present-tense example): No adverse findings
- stability profile [2]: excellent

Substance: P^1,P^4-di(uridine 5′-)tetraphosphate, tetrasodium salt
- acute toxicity (dogs): low degree of acute toxicity
- stimulating the expectoration of sputum compared to placebo ([3]; conclusion): effective
- safety and tolerability ([3]; in vivo): safe and well-tolerated
- effect to induce the expectoration of sputum ([3]; non-smokers): observed
- stimulation of sputum expectoration over the next hour of sputum collection ([3]; smokers): sustained
- toxicology profile [1]: excellent toxicology profile with a wide safety margin
- acute toxicity (rat): low degree of acute toxicity
- adverse findings in ocular toxicology studies (rabbits): No adverse findings
- degradation [2]: less than 1.5%
- maximum solubility in water [2]: ca. 900 mg/mL
- solubility profile [2]: excellent
- stability profile [2]: excellent
- acute toxicity (dog): low degree of acute toxicity
